Data from patent US10588317B2, “Isoxazoline-substituted benzamides and analogues as insecticides” (priority 2015, dated 2020).
Like-named read-outs stand apart in the source and are kept apart here.

Columns and labels:
Type in all cases: in vivo
Diabrotica balteata = Diabrotica balteata (corn root worm), sprayed maize sprouts; details: 96 h, read-out: effect in at least one of the two categories (mortality or growth inhibition); for percent effect (mortality or growth inhibition) at 200 ppm: application rate 200 ppm, L2 larvae, 4 days after infestation
How it was run: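 Maize sprouts on agar sprayed with aqueous dilutions of DMSO stocks, dried, then infested with L2 larvae (6–10 per well). Mortality and growth inhibition scored against untreated controls 4 days after infestation, at 200 ppm application rate.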

Spodoptera littoralis = Spodoptera littoralis (Egyptian cotton leaf worm), sprayed cotton leaf discs; details: foliar, 72 h, read-out: control (mortality, anti-feeding effect, growth inhibition)
How it was run: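 Cotton leaf discs on agar sprayed with aqueous test solutions made from 10'000 ppm DMSO stock; after drying, infested with five L1 larvae. Mortality, anti-feeding and growth inhibition scored versus untreated samples 3 days after infestation; control counted when any category exceeds untreated.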

Plutella xylostella = Plutella xylostella (diamond back moth), artificial diet; details: 120 h, read-out: effect in at least one of the two categories (mortality or growth inhibition); for percent effect (mortality or growth inhibition) at 200 ppm: application rate 200 ppm, L2 larvae, 5 days after infestation
How it was run: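 Artificial diet in 24-well plates treated with aqueous test solutions made from 10'000 ppm DMSO stocks, dried, then infested with L2 larvae (10 to 15 per well). Mortality and growth inhibition scored against untreated samples 5 days after infestation; activity cut-off at least 80% in either category at 200 ppm.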

Myzus persicae = Myzus persicae (green peach aphid): feeding/contact activity; details: 144 h
Procedure: (§1) Sunflower leaf discs were placed onto agar in a 24-well microtiter plate and sprayed with aqueous test solutions prepared from 10'000 ppm DMSO stock solutions. After drying, the leaf discs were infested with an aphid population of mixed ages. The samples were assessed for mortality 6 days after infestation.

Euschistus heros = Euschistus heros (neotropical brown stink bug), sprayed soybean leaves; details: 120 h, read-out: effect in at least one of the two categories (mortality or growth inhibition); for percent effect (mortality or growth inhibition) at 200 ppm: application rate 200 ppm, N2 nymphs, 5 days after infestation
How it was run: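 Soybean leaves on agar sprayed with aqueous dilutions of DMSO stocks, dried, then infested with N2 nymphs. Mortality and growth inhibition scored against untreated samples 5 days after infestation; application rate 200 ppm.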

Thrips tabaci = Thrips tabaci (onion thrips): feeding/contact activity; details: 144 h
Procedure: as §1, with “on” for “onto”, “in” for “in a”, “plates” for “plate”, “drying” for “drying,”, “a Thrips” for “an aphid”

Tetranychus urticae = Tetranychus urticae (two-spotted spider mite): feeding/contact activity; details: 192 h
Procedure: Bean leaf discs on agar in 24-well microtiter plates were sprayed with aqueous test solutions prepared from 10'000 ppm DMSO stock solutions. After drying the leaf discs were infested with a mite population of mixed ages. The samples were assessed for mortality on mixed population (mobile stages) 8 days after infestation.

[1] = application rate 200 ppm, L1 larvae, 3 days after infestation
[2] = application rate 200 ppm, aphid population of mixed ages, 6 days after infestation, read-out: mortality
[3] = application rate 200 ppm, Thrips population of mixed ages, 6 days after infestation, read-out: mortality
[4] = application rate 200 ppm, mixed population (mobile stages), 8 days after infestation, read-out: mortality

Cc1cc(C2=NO[C@@](c3cc(Cl)cc(Cl)c3)(C(F)(F)F)C2)ccc1C(=O)N[C@H]1CON(S(=O)(=O)F)C1 [Compound A198, (4R)-4-[[4-[(5S)-5-(3,5-dichlorophenyl)-5-(trifluoromethyl)-4H-isoxazol-3-yl]-2-methyl-benzoyl]amino]isoxazolidine-2-sulfonyl fluoride]
≥ 80%: percent control (mortality or growth inhibition) at 200 ppm (Diabrotica balteata) | mortality at 200 ppm (Spodoptera littoralis) | percent control (mortality or growth inhibition) at 200 ppm (Plutella xylostella) | mortality at 200 ppm (Myzus persicae) | percent control (mortality or growth inhibition) at 200 ppm (Euschistus heros) | mortality at 200 ppm (Thrips tabaci) | mortality at 200 ppm (Tetranychus urticae)

Cc1cc(C2=NO[C@@](c3cc(Cl)c(F)c(Cl)c3)(C(F)(F)F)C2)ccc1C(=O)N[C@@H]1CON(S(=O)(=O)CC(=O)O)C1 [Compound A200]
≥ 80%: percent effect (mortality or growth inhibition) at 200 ppm (Diabrotica balteata) | mortality at 200 ppm (Spodoptera littoralis; [1]) | percent effect (mortality or growth inhibition) at 200 ppm (Plutella xylostella) | mortality at 200 ppm (Myzus persicae; [2]) | percent effect (mortality or growth inhibition) at 200 ppm (Euschistus heros) | mortality at 200 ppm (Thrips tabaci; [3]) | mortality at 200 ppm (Tetranychus urticae; [4])

Cc1cc(C2=NO[C@@](c3cc(Cl)c(OC(F)F)c(Cl)c3)(C(F)(F)F)C2)ccc1C(=O)N[C@@H]1CON(S(C)(=O)=O)C1 [Compound A204, 4-[(5S)-5-[3,5-dichloro-4-(difluoromethoxy)phenyl]-5-(trifluoromethyl)-4H-1,2-oxazol-3-yl]-2-methyl-N-[(4S)-2-methylsulfonyl-1,2-oxazolidin-4-yl]benzamide]
≥ 80%: percent effect (mortality or growth inhibition) at 200 ppm (Diabrotica balteata) | mortality at 200 ppm (Spodoptera littoralis; [1]) | percent effect (mortality or growth inhibition) at 200 ppm (Plutella xylostella) | mortality at 200 ppm (Myzus persicae; [2]) | percent effect (mortality or growth inhibition) at 200 ppm (Euschistus heros) | mortality at 200 ppm (Thrips tabaci; [3]) | mortality at 200 ppm (Tetranychus urticae; [4])

Cc1cc(C2=NO[C@@](c3cc(Cl)c(OC(F)F)c(Cl)c3)(C(F)(F)F)C2)ccc1C(=O)N[C@@H]1CON(S(=O)(=O)N(C)C)C1 [Compound A205, 4-[(5S)-5-[3,5-dichloro-4-(difluoromethoxy)phenyl]-5-(trifluoromethyl)-4H-1,2-oxazol-3-yl]-N-[(4S)-2-(dimethylsulfamoyl)-1,2-oxazolidin-4-yl]-2-methylbenzamide]
≥ 80%: percent effect (mortality or growth inhibition) at 200 ppm (Diabrotica balteata) | mortality at 200 ppm (Spodoptera littoralis; [1]) | percent effect (mortality or growth inhibition) at 200 ppm (Plutella xylostella) | mortality at 200 ppm (Myzus persicae; [2]) | percent effect (mortality or growth inhibition) at 200 ppm (Euschistus heros) | mortality at 200 ppm (Thrips tabaci; [3]) | mortality at 200 ppm (Tetranychus urticae; [4])

CNS(=O)(=O)N1C[C@@H](NC(=O)c2ccc(C3=NO[C@](c4cc(Cl)c(C(F)F)c(Cl)c4)(C(F)(F)F)C3)cc2C)CO1 [Compound A206, 4-[(5R)-5-[3,5-dichloro-4-(difluoromethyl)phenyl]-5-(trifluoromethyl)-4H-1,2-oxazol-3-yl]-2-methyl-N-[(4R)-2-(methylsulfamoyl)-1,2-oxazolidin-4-yl]benzamide]
≥ 80%: percent effect (mortality or growth inhibition) at 200 ppm (Diabrotica balteata) | mortality at 200 ppm (Spodoptera littoralis; [1]) | percent effect (mortality or growth inhibition) at 200 ppm (Plutella xylostella) | mortality at 200 ppm (Myzus persicae; [2]) | percent effect (mortality or growth inhibition) at 200 ppm (Euschistus heros) | mortality at 200 ppm (Thrips tabaci; [3]) | mortality at 200 ppm (Tetranychus urticae; [4])

CNS(=O)(=O)N1C[C@@H](NC(=O)c2ccc(C3=NO[C@](c4cc(Cl)c(OC(F)F)c(Cl)c4)(C(F)(F)F)C3)cc2C)CO1 [Compound A207, 4-[(5R)-5-[3,5-dichloro-4-(difluoromethoxy)phenyl]-5-(trifluoromethyl)-4H-1,2-oxazol-3-yl]-2-methyl-N-[(4R)-2-(methylsulfamoyl)-1,2-oxazolidin-4-yl]benzamide]
≥ 80%: percent effect (mortality or growth inhibition) at 200 ppm (Diabrotica balteata) | mortality at 200 ppm (Spodoptera littoralis; [1]) | percent effect (mortality or growth inhibition) at 200 ppm (Plutella xylostella) | mortality at 200 ppm (Myzus persicae; [2]) | percent effect (mortality or growth inhibition) at 200 ppm (Euschistus heros) | mortality at 200 ppm (Thrips tabaci; [3]) | mortality at 200 ppm (Tetranychus urticae; [4])

Cc1cc(C2=NO[C@](c3cc(Cl)c(F)c(Cl)c3)(C(F)(F)F)C2)ccc1C(=O)N[C@H]1CON(S(=O)(=O)NC(=O)OC(C)(C)C)C1 [Compound A209, tert-butyl N-[[(4R)-4-[[4-[(5R)-5-(3,5-dichloro-4-fluorophenyl)-5-(trifluoromethyl)-4H-1,2-oxazol-3-yl]-2-methylbenzoyl]amino]-1,2-oxazolidin-2-yl]sulfonyl]carbamate]
≥ 80%: percent effect (mortality or growth inhibition) at 200 ppm (Diabrotica balteata) | mortality at 200 ppm (Spodoptera littoralis; [1]) | percent effect (mortality or growth inhibition) at 200 ppm (Plutella xylostella) | mortality at 200 ppm (Myzus persicae; [2]) | percent effect (mortality or growth inhibition) at 200 ppm (Euschistus heros) | mortality at 200 ppm (Thrips tabaci; [3]) | mortality at 200 ppm (Tetranychus urticae; [4])

Cc1cc(C2=NO[C@@](c3cc(Cl)cc(Cl)c3)(C(F)(F)F)C2)ccc1C(=O)N[C@@H]1CON(S(=O)(=O)CF)C1 [Compound A210]
≥ 80%: percent effect (mortality or growth inhibition) at 200 ppm (Diabrotica balteata) | mortality at 200 ppm (Spodoptera littoralis; [1]) | percent effect (mortality or growth inhibition) at 200 ppm (Plutella xylostella) | mortality at 200 ppm (Myzus persicae; [2]) | percent effect (mortality or growth inhibition) at 200 ppm (Euschistus heros) | mortality at 200 ppm (Thrips tabaci; [3]) | mortality at 200 ppm (Tetranychus urticae; [4])

Cc1cc(C2=NO[C@](c3cc(Cl)c(F)c(Cl)c3)(C(F)(F)F)C2)ccc1C(=O)N[C@H]1CON(S(=O)(=O)CF)C1 [Compound A211]
≥ 80%: percent effect (mortality or growth inhibition) at 200 ppm (Diabrotica balteata) | mortality at 200 ppm (Spodoptera littoralis; [1]) | percent effect (mortality or growth inhibition) at 200 ppm (Plutella xylostella) | mortality at 200 ppm (Myzus persicae; [2]) | percent effect (mortality or growth inhibition) at 200 ppm (Euschistus heros) | mortality at 200 ppm (Thrips tabaci; [3]) | mortality at 200 ppm (Tetranychus urticae; [4])

Cc1cc(C(F)(F)F)cc([C@@]2(C(F)(F)F)CC(c3ccc(C(=O)N[C@@H]4CON(S(C)(=O)=O)C4)c(C)c3)=NO2)c1 [Compound A212]
≥ 80%: percent effect (mortality or growth inhibition) at 200 ppm (Diabrotica balteata) | mortality at 200 ppm (Spodoptera littoralis; [1]) | percent effect (mortality or growth inhibition) at 200 ppm (Plutella xylostella) | mortality at 200 ppm (Myzus persicae; [2]) | percent effect (mortality or growth inhibition) at 200 ppm (Euschistus heros) | mortality at 200 ppm (Thrips tabaci; [3]) | mortality at 200 ppm (Tetranychus urticae; [4])

Cc1cc(C2=NO[C@@](c3cc(Cl)c(F)c(Cl)c3)(C(F)(F)F)C2)ccc1C(=O)N[C@@H]1CON(S(=O)(=O)F)C1 [Compound A213, (4S)-4-[[4-[(5S)-5-(3,5-dichloro-4-fluorophenyl)-5-(trifluoromethyl)-4H-1,2-oxazol-3-yl]-2-methylbenzoyl]amino]-1,2-oxazolidine-2-sulfonyl fluoride]
≥ 80%: percent control (mortality or growth inhibition) at 200 ppm (Diabrotica balteata) | mortality at 200 ppm (Spodoptera littoralis) | percent control (mortality or growth inhibition) at 200 ppm (Plutella xylostella) | mortality at 200 ppm (Myzus persicae) | percent control (mortality or growth inhibition) at 200 ppm (Euschistus heros) | mortality at 200 ppm (Thrips tabaci) | mortality at 200 ppm (Tetranychus urticae)

Cc1cc(C2=NO[C@@](c3cc(Cl)cc(C(F)(F)F)c3)(C(F)(F)F)C2)ccc1C(=O)N[C@@H]1CON(S(=O)(=O)CC(F)(F)F)C1 [Compound A214]
≥ 80%: percent effect (mortality or growth inhibition) at 200 ppm (Diabrotica balteata) | mortality at 200 ppm (Spodoptera littoralis; [1]) | percent effect (mortality or growth inhibition) at 200 ppm (Plutella xylostella) | mortality at 200 ppm (Myzus persicae; [2]) | percent effect (mortality or growth inhibition) at 200 ppm (Euschistus heros) | mortality at 200 ppm (Thrips tabaci; [3]) | mortality at 200 ppm (Tetranychus urticae; [4])

Cc1cc(C2=NO[C@@](c3cccc(C(F)(F)F)n3)(C(F)(F)F)C2)ccc1C(=O)N[C@H]1CON(S(C)(=O)=O)C1 [Compound A215]
≥ 80%: percent effect (mortality or growth inhibition) at 200 ppm (Diabrotica balteata) | mortality at 200 ppm (Spodoptera littoralis; [1]) | percent effect (mortality or growth inhibition) at 200 ppm (Plutella xylostella) | mortality at 200 ppm (Myzus persicae; [2]) | percent effect (mortality or growth inhibition) at 200 ppm (Euschistus heros) | mortality at 200 ppm (Thrips tabaci; [3]) | mortality at 200 ppm (Tetranychus urticae; [4])

Cc1cc(C2=NO[C@](c3cc(Cl)c(Cl)c(Cl)c3)(C(F)(F)F)C2)ccc1C(=O)N[C@H]1CON(S(=O)(=O)CF)C1 [Compound A216, N-[(4R)-2-(fluoromethylsulfonyl)-1,2-oxazolidin-4-yl]-2-methyl-4-[(5R)-5-(3,4,5-trichlorophenyl)-5-(trifluoromethyl)-4H-1,2-oxazol-3-yl]benzamide]
≥ 80%: percent effect (mortality or growth inhibition) at 200 ppm (Diabrotica balteata) | mortality at 200 ppm (Spodoptera littoralis; [1]) | percent effect (mortality or growth inhibition) at 200 ppm (Plutella xylostella) | mortality at 200 ppm (Myzus persicae; [2]) | percent effect (mortality or growth inhibition) at 200 ppm (Euschistus heros) | mortality at 200 ppm (Thrips tabaci; [3]) | mortality at 200 ppm (Tetranychus urticae; [4])
